Data reported in patent publication US20090232909A1, “Method for determining physiological effects of hemoglobin” (priority 1999, published 2009).

Columns and labels:
[1] = test system: myoglobin; conditions: cited from earlier work
[2] = molecular target: Hb (Homo sapiens, UniProt P68871+P69905); experiment: EPR of iron nitrosyl-Hb formed by limiting NO with variously oxygenated Hb; format: biochemical; design: purchased Apex Bioscience (Research Triangle Park, N.C.)
From the text: To investigate the reaction of NO with oxyHb, we begin by adopting the conventional viewpoint that: NO consumption involves a competition between the oxidation reaction (Eq. 1) and the adduct-forming addition reaction (Eq. 2); and that the specific rate constants for these reactions, namely kox and kadd, are independent of the degree of oxygen saturation (Y) of the hemes.
[Fe(II)NO]/[NO]0=1−Y/[1−Y+κY] [4]
HbA0 was obtained from Apex Bioscience (Research Triangle Park, N.C.). Buffer exchange was achieved by dialysis. Deoxygenation was performed by gas exchange with argon in a tonometer. NO was added from a stock solution prepared under ultrapure helium and purified across alkali and cold traps. Stock solutions of NO were prepared in phosphate buffered saline containing 100 μM DTPA, pH 7.4. NO injections were made via a gas tight Hamilton syringe with Teflon seal. The concentration of NO in stock solutions was assayed by electrode and by a Sievers 280 NO analyzer (Boulder Colo.).
EPR spectroscopy was carried out with samples in 4-mm i.d. fused silica tubes, at 76° K, on a Varian E-9 spectrometer. UV-visible spectra were taken after NO addition. The sample was then placed in a deoxygenated EPR tube and plunged into liquid N2. EPR spectra of nitrosylHb or dinitrosyl iron complexes (DNICs) were recorded in a single 4-min. scan over 400 G on a Varian E-9 spectrometer operating at 9.274 GHz, with 10-mW microwave power, 10-20 G amplitude of field modulation at 100 kHz, and time constant of 0.250 sec. Spectra of high-spin metHb were recorded with a scan of 1000 G, 20 G modulation amplitude, time constant of 0.128 sec, under otherwise identical conditions. NitrosylHb was measured by double integration of EPR spectra and by comparison to EPR spectra of Hb(NO)4 standardized with UV-visible spectroscopy. The reproducibility of nitrosylHb measurements was estimated to be ±6% by repeated trials.
(A) EPR spectra of iron-nitrosyl Hb derivatives formed by incubation of 19 μM NO with 393 μM Hb at various degrees of oxygen saturation in 10 mM phosphate buffer, pH 7.4. […]

[N]=O [NO, nitric oxide]
rate of NO binding to ferrous myoglobin [1]: 2.5e+07 M⁻¹ s⁻¹
rate of NO oxidation of oxymyoglobin [1]: 3.4×10^7 M^−1 sect^−1
decrease of K over the 0 to 80% range of oxygen saturation ([2]; 10 mM phosphate): 7 fold
decrease of K by extrapolation ([2]; 10 mM phosphate, at 90% saturation): 100 fold
K (κ = kox/kadd) from fit of Eq. 4 ([2]; 100 mM phosphate, pH 7.4, average of the two curves): 1.40±0.06
